By IC50 is commonly meant the concentration needed to halve the response being measured.

The results in this text go back to patent US6117841A, “Substituted peptidylamine calcium channel blockers” (Warner-Lambert Company, priority 1999, dated 2000).

One assay has as its target T1, N-type Ca^2+ Channel (Homo sapiens, UniProt Q00975).
T1 construct: host or cells: IMR-32 cells differentiated with dibutyryl cAMP and bromodeoxyuridine
In words: Measurement of N-type Ca2+ channel blocking potencies in IMR-32 cells using the fluorescent Ca2+ indicator Indo-1. Conditions: IMR-32 cells, K+ depolarization, 5 μM nitrendipine to block L-type channels; read-out: IMR 32 IC50. It counts as cell-based. Summed up:
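IMR-32 cells were differentiated 7–13 days (1 mM dibutyryl cAMP, 2.5 µM BrdU) and Indo-1-loaded. They were preincubated 10 min at 30 °C with compound and 5 µM nitrendipine in HEPES/Tris pH 7.4 HBSS with 0.5% BSA, then KCl/CaCl2-depolarized. The peak-minus-basal 400/490 nm emission ratio gave IC50 by four-parameter logistic fit.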

For the next assay, the system named is DBA/2 mice. In words: In vivo anticonvulsant activity, sound-induced tonic seizures in DBA/2 mice. The note with it: tested 15 or 45 minutes after injection. On the procedure:
A compound of the present invention was dissolved in water using 10% (weight/volume) Emulphor (GAF Corp., Wayne, N.J.) surfactant. Substances were administered by intravenous injection into the retro-orbital venous sinus. All testing was performed 15 minutes or 45 minutes after drug injection. All the male mice, 3-4 weeks old were obtained from Jackson Laboratories Bar Harbour, Me. Immediately before anticonvulsant testing, mice were placed upon a wire mesh, 4 inches square suspended from a steel rod. The square was slowly inverted through 180 degrees and mice observed for 30 seconds. Any mouse falling from the wire mesh was scored as ataxia.
Mice were placed into an enclosed acrylic plastic chamber (21 cm height, approximately 30 cm diameter) with a high-frequency speaker (4 cm diameter) in the center of the top lid. An audio signal generator (Protek model B-810) was used to produce a continuous sinusoidal tone that was swept linearly in frequency between 8 kHz and 16 kHz once each 10 msec. The average sound pressure level (SPL) during stimulation was approximately 100 dB at the floor of the chamber. Mice were placed within the chamber and allowed to acclimatize for 1 minute. DBA/2 mice in the vehicle-treated group responded to the sound stimulus (applied until tonic extension occurred, or for a maximum of 60 sec) with a characteristic seizure sequence consisting of wild running followed by clonic seizures, and later by tonic extension, and finally by respiratory arrest and death in 80% or more of the mice. In vehicle-treated mice, the entire sequence of seizures to respiratory arrest lasts approximately 15-20 seconds.
The incidence of all the seizure phases in the drug-treated and vehicle-treated mice was recorded, and the occurrence of tonic seizures were used for calculatine anticonvulsant ED50 values by probit analysis. Mice were used only once for testing at each time and dose point.

T1 sequence (Q00975 whole entry): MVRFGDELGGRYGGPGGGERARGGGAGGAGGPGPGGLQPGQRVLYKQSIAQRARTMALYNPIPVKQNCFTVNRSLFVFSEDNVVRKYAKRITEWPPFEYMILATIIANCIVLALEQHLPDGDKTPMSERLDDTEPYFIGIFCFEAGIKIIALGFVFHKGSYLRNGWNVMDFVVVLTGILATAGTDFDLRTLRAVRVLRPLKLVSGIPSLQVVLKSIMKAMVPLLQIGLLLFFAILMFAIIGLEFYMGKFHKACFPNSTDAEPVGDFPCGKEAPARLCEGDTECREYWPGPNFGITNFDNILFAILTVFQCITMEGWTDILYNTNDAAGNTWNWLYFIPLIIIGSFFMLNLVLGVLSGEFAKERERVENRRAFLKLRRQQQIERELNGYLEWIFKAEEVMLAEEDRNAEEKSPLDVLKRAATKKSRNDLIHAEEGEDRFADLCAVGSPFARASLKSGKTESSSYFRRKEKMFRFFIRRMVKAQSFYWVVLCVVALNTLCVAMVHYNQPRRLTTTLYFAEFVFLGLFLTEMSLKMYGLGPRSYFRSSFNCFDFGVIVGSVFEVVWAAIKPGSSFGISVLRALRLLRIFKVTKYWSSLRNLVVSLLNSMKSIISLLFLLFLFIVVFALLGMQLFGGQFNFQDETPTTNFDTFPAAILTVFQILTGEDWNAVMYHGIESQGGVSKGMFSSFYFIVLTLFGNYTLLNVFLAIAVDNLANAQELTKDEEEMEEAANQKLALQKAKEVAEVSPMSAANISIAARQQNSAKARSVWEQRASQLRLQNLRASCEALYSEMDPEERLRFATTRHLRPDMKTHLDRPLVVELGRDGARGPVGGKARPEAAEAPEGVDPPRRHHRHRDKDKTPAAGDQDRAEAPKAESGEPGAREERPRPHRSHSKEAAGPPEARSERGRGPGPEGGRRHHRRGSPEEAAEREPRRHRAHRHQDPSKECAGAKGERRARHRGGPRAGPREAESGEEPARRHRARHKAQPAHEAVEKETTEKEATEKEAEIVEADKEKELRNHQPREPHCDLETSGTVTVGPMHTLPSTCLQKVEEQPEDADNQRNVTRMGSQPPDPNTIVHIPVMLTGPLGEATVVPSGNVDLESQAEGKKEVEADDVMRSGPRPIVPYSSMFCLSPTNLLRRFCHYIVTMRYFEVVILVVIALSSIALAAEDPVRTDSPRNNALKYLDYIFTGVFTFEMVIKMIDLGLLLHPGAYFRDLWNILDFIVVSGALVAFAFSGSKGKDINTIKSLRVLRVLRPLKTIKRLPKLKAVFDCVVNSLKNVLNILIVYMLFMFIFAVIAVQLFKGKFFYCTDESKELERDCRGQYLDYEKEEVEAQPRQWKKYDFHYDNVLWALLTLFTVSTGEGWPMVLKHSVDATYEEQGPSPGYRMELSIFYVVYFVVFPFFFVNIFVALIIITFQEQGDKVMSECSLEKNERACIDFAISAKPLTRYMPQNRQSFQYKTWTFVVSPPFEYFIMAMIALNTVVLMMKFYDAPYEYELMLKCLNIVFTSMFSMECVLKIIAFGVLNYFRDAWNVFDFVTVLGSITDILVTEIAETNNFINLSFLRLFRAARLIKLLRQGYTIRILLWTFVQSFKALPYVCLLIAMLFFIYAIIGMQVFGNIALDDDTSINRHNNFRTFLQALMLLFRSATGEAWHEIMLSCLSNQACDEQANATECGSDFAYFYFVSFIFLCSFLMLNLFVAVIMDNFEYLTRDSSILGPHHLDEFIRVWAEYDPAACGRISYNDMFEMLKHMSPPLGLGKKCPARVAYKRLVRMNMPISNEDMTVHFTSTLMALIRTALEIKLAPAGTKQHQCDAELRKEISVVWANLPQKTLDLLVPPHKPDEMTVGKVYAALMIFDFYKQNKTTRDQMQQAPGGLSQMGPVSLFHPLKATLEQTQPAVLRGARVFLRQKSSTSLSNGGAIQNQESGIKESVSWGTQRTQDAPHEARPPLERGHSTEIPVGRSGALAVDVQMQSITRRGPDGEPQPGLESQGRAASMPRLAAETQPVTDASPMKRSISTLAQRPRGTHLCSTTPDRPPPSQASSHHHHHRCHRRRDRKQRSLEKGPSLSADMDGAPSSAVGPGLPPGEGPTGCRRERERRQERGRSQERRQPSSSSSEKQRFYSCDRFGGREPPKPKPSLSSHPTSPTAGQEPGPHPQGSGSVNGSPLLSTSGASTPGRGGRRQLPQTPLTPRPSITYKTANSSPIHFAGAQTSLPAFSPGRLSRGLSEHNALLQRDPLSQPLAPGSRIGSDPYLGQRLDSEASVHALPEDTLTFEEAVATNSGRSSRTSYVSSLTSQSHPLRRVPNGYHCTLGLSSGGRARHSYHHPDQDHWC
T1 sequence (P54284 whole entry partner): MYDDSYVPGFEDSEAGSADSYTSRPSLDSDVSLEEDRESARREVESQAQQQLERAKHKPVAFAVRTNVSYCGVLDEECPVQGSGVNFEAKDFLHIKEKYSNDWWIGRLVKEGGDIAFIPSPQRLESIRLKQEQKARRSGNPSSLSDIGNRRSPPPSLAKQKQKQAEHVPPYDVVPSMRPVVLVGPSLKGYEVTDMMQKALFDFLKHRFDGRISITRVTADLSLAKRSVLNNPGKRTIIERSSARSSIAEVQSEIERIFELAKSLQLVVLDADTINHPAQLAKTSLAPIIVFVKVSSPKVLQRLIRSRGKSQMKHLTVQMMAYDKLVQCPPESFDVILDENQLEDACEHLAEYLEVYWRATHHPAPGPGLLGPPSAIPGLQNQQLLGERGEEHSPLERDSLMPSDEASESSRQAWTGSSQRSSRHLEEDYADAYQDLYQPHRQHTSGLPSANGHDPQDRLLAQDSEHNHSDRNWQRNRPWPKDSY
T1 sequence (P54289 25-946 partner limits assumed): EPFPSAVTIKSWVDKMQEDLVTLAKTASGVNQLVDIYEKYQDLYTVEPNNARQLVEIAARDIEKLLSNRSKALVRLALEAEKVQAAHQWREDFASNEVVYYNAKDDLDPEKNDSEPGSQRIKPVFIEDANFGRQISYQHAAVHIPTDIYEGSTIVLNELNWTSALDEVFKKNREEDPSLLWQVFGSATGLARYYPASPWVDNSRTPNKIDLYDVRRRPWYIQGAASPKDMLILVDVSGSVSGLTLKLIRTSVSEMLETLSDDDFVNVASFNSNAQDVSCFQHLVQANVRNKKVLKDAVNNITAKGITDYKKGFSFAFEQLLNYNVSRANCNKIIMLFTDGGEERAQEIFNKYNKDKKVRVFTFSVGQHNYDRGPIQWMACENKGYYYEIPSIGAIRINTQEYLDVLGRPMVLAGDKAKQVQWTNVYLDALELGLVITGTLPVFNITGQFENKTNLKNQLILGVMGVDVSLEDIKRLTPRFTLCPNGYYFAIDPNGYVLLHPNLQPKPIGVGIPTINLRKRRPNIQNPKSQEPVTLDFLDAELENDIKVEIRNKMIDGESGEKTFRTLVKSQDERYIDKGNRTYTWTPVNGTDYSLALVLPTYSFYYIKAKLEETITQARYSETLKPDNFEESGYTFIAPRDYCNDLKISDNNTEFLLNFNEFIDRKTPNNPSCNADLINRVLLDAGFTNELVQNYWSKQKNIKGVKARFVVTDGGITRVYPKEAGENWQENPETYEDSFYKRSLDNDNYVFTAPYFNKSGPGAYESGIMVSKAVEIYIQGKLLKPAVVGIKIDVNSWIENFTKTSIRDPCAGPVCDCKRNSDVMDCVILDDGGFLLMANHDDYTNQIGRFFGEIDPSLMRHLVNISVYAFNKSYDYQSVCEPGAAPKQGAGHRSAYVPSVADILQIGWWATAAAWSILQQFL
T1 sequence (P54289 947-1103 partner limits assumed): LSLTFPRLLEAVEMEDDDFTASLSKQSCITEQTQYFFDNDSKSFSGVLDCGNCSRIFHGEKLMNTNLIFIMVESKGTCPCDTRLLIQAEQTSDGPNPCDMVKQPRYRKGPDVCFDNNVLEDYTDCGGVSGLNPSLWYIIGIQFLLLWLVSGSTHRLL

Turning to `CCC(C)N(C)C(CC(C)C)C(=O)NC(Cc1ccc(OCc2ccccc2)cc1)C(=O)NC(C)(C)C` (racemic) [Example 103, [S-[R*,R*,(RS)]]-2-(sec-Butyl-methyl-amino)-4-methyl-pentanoic acid [2-(4-benzyloxy-phenyl)-1-tert-butylcarbamoyl-ethyl]-amide], the IC50 at N-type Ca^2+ Channel turned out to be 1500 nM. Also, in the assay on DBA/2 mice (10 mg/kg intravenous), the “DBA/2 mice % Protection (10 mg/kg)” value was found to be 100%.

With `CC(C)CCN(C)[C@@H](CC(C)C)C(=O)N[C@@H](Cc1ccc(OCc2ccccc2)cc1)C(=O)NC(C)(C)C` (relative stereo) [Example 7, [S-(R*,R*)]-4-Methyl-2-[methyl-(3-methyl-butyl)-amino]-pentanoic acid [2-(4-benzyloxy-phenyl)-1-tert-butylcarbamoyl-ethyl]-amide], the IC50 on N-type Ca^2+ Channel was 320 nM. Further, in the assay with DBA/2 mice (30 mg/kg intravenous), the “DBA/2 mice % Protection dose @ 30 mg/kg” value worked out at 100%.
